Laboratory results reported in ChEMBL document CHEMBL1129019, “CCK-4 restricted analogues containing a 3-oxoindolizidine skeleton” (Bioorg Med Chem Lett, 1996).

Columns and labels:
[1] = target: T1, Cholecystokinin receptor type A (Rattus norvegicus, UniProt P30551); experiment: Binding of [3H]propionyl-CCK-8 to Cholecystokinin type A receptor from rat pancreas
T1 sequence (P30551 whole entry): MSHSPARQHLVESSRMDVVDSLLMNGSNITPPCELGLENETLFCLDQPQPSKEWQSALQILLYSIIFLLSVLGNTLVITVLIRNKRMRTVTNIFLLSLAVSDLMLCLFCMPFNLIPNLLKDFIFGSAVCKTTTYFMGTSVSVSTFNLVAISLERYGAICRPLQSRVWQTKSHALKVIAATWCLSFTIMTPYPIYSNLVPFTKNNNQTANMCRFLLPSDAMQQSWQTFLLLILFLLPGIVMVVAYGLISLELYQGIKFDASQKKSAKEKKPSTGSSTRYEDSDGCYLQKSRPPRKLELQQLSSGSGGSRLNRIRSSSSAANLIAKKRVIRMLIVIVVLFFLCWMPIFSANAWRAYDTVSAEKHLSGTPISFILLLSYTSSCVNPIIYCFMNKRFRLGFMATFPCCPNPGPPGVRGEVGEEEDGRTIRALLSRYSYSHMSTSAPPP

[2] = target: T2, Gastrin/cholecystokinin type B receptor (Rattus norvegicus, UniProt P30553); experiment: Binding of [3H]propionyl-CCK-8 to Cholecystokinin type B receptor from rat cerebral cortex.; type: tissue-based
T2 sequence (P30553 whole entry): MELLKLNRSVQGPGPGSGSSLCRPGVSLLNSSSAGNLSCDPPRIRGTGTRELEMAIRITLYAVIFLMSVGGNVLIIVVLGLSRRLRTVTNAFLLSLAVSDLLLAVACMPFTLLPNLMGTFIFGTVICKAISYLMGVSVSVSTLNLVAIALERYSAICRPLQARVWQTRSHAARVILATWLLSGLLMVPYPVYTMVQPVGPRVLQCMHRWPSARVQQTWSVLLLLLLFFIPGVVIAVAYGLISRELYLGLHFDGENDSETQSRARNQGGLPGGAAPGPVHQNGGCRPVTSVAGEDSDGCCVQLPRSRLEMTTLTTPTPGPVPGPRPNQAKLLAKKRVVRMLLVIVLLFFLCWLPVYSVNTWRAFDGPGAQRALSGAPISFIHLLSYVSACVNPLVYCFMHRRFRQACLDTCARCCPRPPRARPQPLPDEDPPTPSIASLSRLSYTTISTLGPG

Structure (SMILES)	IC50 [1]	IC50 [2]
COC(=O)[C@@]1(Cc2ccccc2)C[C@H]2[C@H](NC(=O)[C@@H](Cc3c[nH]c4ccccc34)NC(=O)OC(C)(C)C)CCCN2C1=O	> 10000 nM	> 10000 nM
COC(=O)[C@@]1(Cc2ccccc2)C[C@@H]2[C@@H](NC(=O)[C@@H](Cc3c[nH]c4ccccc34)NC(=O)OC(C)(C)C)CCCN2C1=O	> 10000 nM	> 10000 nM
COC(=O)[C@]1(Cc2ccccc2)C[C@@H]2[C@@H](NC(=O)[C@@H](Cc3c[nH]c4ccccc34)NC(=O)OC(C)(C)C)CCCN2C1=O	> 10000 nM	3720 nM
CC1(C)[C@H]2CC[C@@]1(C)[C@H](OC(=O)N[C@](C)(Cc1c[nH]c3ccccc13)C(=O)NC[C@H](NC(=O)CCC(=O)O)c1ccccc1)C2	1120 nM	9 nM
CC(C)(C)OC(=O)N[C@@H](Cc1c[nH]c2ccccc12)C(=O)N[C@H]1CCCN2C(=O)[C@@](Cc3ccccc3)(C(N)=O)C[C@H]12	1020 nM	> 10000 nM
COC(=O)[C@]1(Cc2ccccc2)C[C@H]2[C@H](NC(=O)[C@H](Cc3c[nH]c4ccccc34)NC(=O)OC(C)(C)C)CCCN2C1=O	> 10000 nM	> 10000 nM
COC(=O)[C@]1(Cc2ccccc2)C[C@@H]2[C@@H](NC(=O)[C@@H](Cc3c[nH]c4ccccc34)NC(=O)C34CC5CC(CC(C5)C3)C4)CCCN2C1=O	> 10000 nM	220 nM
CC(C)(C)OC(=O)N[C@@H](Cc1c[nH]c2ccccc12)C(=O)N[C@H]1CCCN2C(=O)[C@](Cc3ccccc3)(C(N)=O)C[C@H]12	> 10000 nM	3530 nM
CC(C)(C)OC(=O)N[C@H](Cc1c[nH]c2ccccc12)C(=O)N[C@H]1CCCN2C(=O)[C@](Cc3ccccc3)(C(N)=O)C[C@H]12	> 10000 nM	820 nM
COC(=O)[C@@]1(Cc2ccccc2)C[C@H]2[C@H](NC(=O)[C@@H](Cc3c[nH]c4ccccc34)NC(=O)C34CC5CC(CC(C5)C3)C4)CCCN2C1=O	980 nM	2190 nM
COC(=O)[C@@]1(Cc2ccccc2)C[C@@H]2[C@@H](NC(=O)[C@H](Cc3c[nH]c4ccccc34)NC(=O)OC(C)(C)C)CCCN2C1=O	2350 nM	> 10000 nM
